# From publication PMC10290130, “The potential of phenothiazinium dyes as cytotoxicity markers in cisplatin-treated cells” (Scientific Reports, 2023)
# Like-named read-outs stand apart in the source and are kept apart here.
# Assays:
# Vero cells [1] = details: 72 h of incubation; cited from earlier work
# [2] = tested on: Vero cells and fibroblasts; experiment: DMSO cytotoxicity, 72 h, read with phenothiazinium dyes, NR or MTT; format: cell-based, African green monkey; human; details: DMSO in concentrations above 5%
# Procedure: (§1) Cells were treated with either DMSO (Vero cells and primary fibroblasts) or cisplatin (LLC-MK2, MCF 10A, and MDA-MB-231). […] After treatment with DMSO and cisplatin, labeling with MTT or NR was performed as described previously[27],[28] with modifications[29],[30]. Cells incubated with phenothiazinium dyes were processed by the same protocol used for NR. […] The cells incubated with MTT were diluted with 100 µl of DMSO. The plates were read at 540 nm (NR) or 570 nm (MTT) in an ELISA reader (Epoch Biotek). Three (LLC-MK2 and MDA-MB-231) and two (Vero cells, human primary fibroblasts and MCF 10A) independent experiments were performed.
# (§2) Values for area under the curve were calculated with GraphPad Prism 8.0 software (San Diego, California USA). For cells incubated with DMSO or cisplatin, the percentage of inhibition was calculated from the absorbance of treated samples relative to their non-treated controls. These values were used to calculate the half-maximal inhibitory concentration (IC50) of cisplatin and DMSO, which was done with Compusyn software (version 1.0)[31].
# Vero cells [3] = experiment: Light microscopy of phenothiazinium dye accumulation in cells; format: cell-based, African green monkey; details: during incubation with cells; phenothiazinium dyes 100 µM, NR 50 µg/ml
# Procedure: The accumulation of phenothiazine dyes in cells was detected by light and confocal microscopies. Firstly, Vero cells were incubated with MB, NMB, TBO, and DMMB (100, 50, 25 and 12.5 µM) for 3 h, 37 °C, 5% CO2 and washed with PBS. […] For confocal detection of phenothiazinium dyes, Vero cell cultures were incubated with 10 μM of MB, NMB, TBO or DMMB for 30 min, 37 °C, with 5% CO2. For all procedures, non-treated controls were incubated with RPMI under the same conditions. The cultures were washed with PBS and treated with trypsin for 10 min, 37 °C and 5% CO2. The cells were transferred to slides and analyzed by confocal microscopy with excitation/emission wavelengths of 543/600 nm, respectively.
# [4] = set-up: method as in PMID 23758207; details: cited from earlier work
# LLC-MK2 = experiment: Cisplatin cytotoxicity, 72 h, read with phenothiazinium dyes, NR or MTT; format: cell-based, rhesus monkey
# Procedure: as §1, §2
# MDA-MB-231 [5] = tested on: MDA-MB-231; set-up: method as in PMID 33261142; details: read-out: concentration inhibiting 50% of growth; cited from earlier work
# MDA-MB-231 [6] = experiment: Cisplatin cytotoxicity, 72 h, read with phenothiazinium dyes, NR or MTT; format: cell-based, human
# Procedure: as §1, §2
# MCF 10A = experiment: as above; format: cell-based, human
# Procedure: as §1, §2
structure (smiles),measurement,setting,value
"Cc1cc(N(C)C)cc2[s+]c3cc(N(C)C)cc(C)c3nc12.[Cl-] [DMMB, 3,7-bis(dimethylamino)-1,9-dimethylphenothiazin-5-ium chloride]",concentrations with toxic effects,Vero cells [1],below 10 µM
"C[S+](C)[O-] [DMSO, dimethyl sulfoxide]",cell inhibition,[2],> 70%
"Cc1cc2nc3ccc(N(C)C)cc3nc2cc1N.Cl [NR, 3-amino-7-dimethylamino-2-methylphenazine hydrochloride]",dye precipitation / crystal formation,Vero cells [3],Crystals of NR formed
same,pKa,[4],6.9
same,log P,[4]; free base state,1.9
"N.N.[Cl][Pt][Cl] [cisplatin, cis-diammineplatinum (II) dichloride]",concentrations at which cells were resistant,LLC-MK2,< 50 µM
same,IC50,LLC-MK2; indicator DMMB,29.5 µM
same,IC50,LLC-MK2; indicator MB,19 µM
same,IC50,LLC-MK2; indicator MTT,25.2 µM
same,IC50,LLC-MK2; indicator NMB,28.2 µM
same,IC50,LLC-MK2; indicator NR,34.9 µM
same,IC50,LLC-MK2; indicator TBO,30.4 µM
same,IC50,MDA-MB-231 [5],6 µM
same,cell inhibition,MDA-MB-231 [6]; cisplatin at concentrations above 12.5 µM,more than 50%
same,IC50,MDA-MB-231 [6]; indicator NMB,1.83 µM
same,IC50,MDA-MB-231 [6]; indicator NR,8.44 µM
same,concentrations at which cells were resistant,MCF 10A,below 25 µM
same,IC50,MCF 10A; indicator DMMB,14.8 µM
same,IC50,MCF 10A; indicator MB,9.26 µM
same,IC50,MCF 10A; indicator MTT,11.9 µM
same,IC50,MCF 10A; indicator NMB,17.1 µM
same,IC50,MCF 10A; indicator NR,13.5 µM
same,IC50,MCF 10A; indicator TBO,14.6 µM
